Assay results as given in patent US6613772B1, “Substituted 2-aryl-4-amino-chinazolines, method for the production and use thereof as medicaments” (Aventis Pharma Deutschland GmbH, priority 1997, dated 2003).

melting point | SMILES
246 °C | COc1cc2nc(-c3ccc(Cl)cc3)nc(NCCN(C(C)C)C(C)C)c2cc1OC.Cl.Cl
202 °C | COc1cc2c(NCCO)nc(-c3ccc(Cl)cc3)nc2c(OC)c1OC.Cl
157 °C | COc1ccccc1N1CCN(c2nc(-c3ccc(Cl)cc3)nc3c(OC)c(OC)c(OC)cc23)CC1 [Example 10, 2-(4-Chlorophenyl)-4-(4-(2-methoxyphenyl)piperazino)-6,7,8-trimethoxyquinazoline]
252 °C | COc1cc2nc(-c3ccc(Cl)cc3)nc(NC3CCN(Cc4ccccc4)CC3)c2cc1OC [Example 22, 2-(4-Chlorophenyl)-4-((1-benzylpiperidin-4-yl)amino)-6,7-dimethoxyquinazoline]
270 °C (dec.) | COc1cc2nc(-c3ccc(Cl)cc3)nc(NCC(=O)O)c2cc1OC [Example 34, N-(2-(4-Chlorophenyl)-6,7-dimethoxyquinazolin-4-yl)aminoacetic Acid]
129 °C | COc1cc2nc(-c3ccc(Cl)cc3)nc(N(C)CCO)c2cc1OC [Example 41, 2-(4-Chlorophenyl)-4-(N-(2-hydroxyethyl)-N-methylamino)-6,7-dimethoxyquinazoline]
216 °C | COc1cc2nc(-c3ccc(Cl)cc3)nc(NCCc3ccc(Oc4ccccc4)cc3)c2cc1OC [Example 46, 2-(4-Chlorophenyl)-4-(2-(4-phenoxyphenyl)ethylamino)-6,7-dimethoxyquinazoline]
196 °C | COC(=O)CNc1nc(-c2ccc(Cl)cc2)nc2cc(OC)c(OC)cc12 [Example 47, 2-(4-Chlorophenyl)-4-((methoxycarbonylmethyl)amino)-6,7-dimethoxyquinazoline]
178 °C | COc1cc2nc(-c3ccc(Cl)cc3)nc(N3CCOCC3)c2cc1OC [Example 48, 2-(4-Chlorophenyl)-4-morpholino-6,7-dimethoxyquinazoline]
200 °C | COc1cc2nc(-c3ccc(C)cc3)nc(N3CCOCC3)c2cc1OC [Example 49, 2-(4-Methylphenyl)-4-morpholino-6,7-dimethoxyquinazoline]
208 °C | COc1cc2nc(-c3ccc(C)cc3)nc(NCc3ccncc3)c2cc1OC [Example 51, 2-(4-Methylphenyl)-4-((4-pyridylmethyl)amino)-6,7-dimethoxyquinazoline]
196 °C | COc1cc2nc(-c3ccc(C)cc3)nc(NCc3ccccn3)c2cc1OC [Example 52, 2-(4-Methylphenyl)-4-((2-pyridylmethyl)amino)-6,7-dimethoxyquinazoline]
204 °C | COc1cc2nc(-c3ccc(C)cc3)nc(NCCc3ccccn3)c2cc1OC [Example 53, 2-(4-Methylphenyl)-4-((2-(2-pyridyl)ethyl)amino)-6,7-dimethoxyquinazoline]
156 °C | COc1cc2c(N3CCNCC3)nc(-c3ccc(Cl)cc3)nc2c(OC)c1OC [Example 56, 2-(4-Chlorophenyl)-4-piperazino-6,7,8-trimethoxyquinazoline]
245 °C | COc1cc2c(NCCCn3ccnc3)nc(-c3ccc(Cl)cc3)nc2c(OC)c1OC [Example 59, 2-(4-Chlorophenyl)-4-(3-(1-imidazolyl)propylamino)-6,7,8-trimethoxyquinazoline]
176 °C | COc1cc2c(N3CCN(C)CC3)nc(-c3cc(C(F)(F)F)cc(C(F)(F)F)c3)nc2c(OC)c1OC [Example 62, 2-(3,5-Bistrifluoromethylphenyl)-4-(4-methylpiperazino)-6,7,8-trimethoxyquinazoline]
170 °C | COc1cc2c(N3CCOCC3)nc(-c3cc(C(F)(F)F)cc(C(F)(F)F)c3)nc2c(OC)c1OC [Example 64, 2-(3,5-Bistrifluoromethylphenyl)-4-morpholino-6,7,8-trimethoxyquinazoline]

Further lines, the molecule ahead of its results:

SMILES | melting point
COc1cc2nc(-c3ccc(Cl)cc3)nc(N3CCN(Cc4ccccc4)CC3)c2cc1OC.Cl.Cl | 225 °C
COc1cccc(CNc2nc(-c3ccc(C)cc3)nc3cc(OC)c(OC)cc23)c1.Cl | 278 °C
COc1cccc(CCNc2nc(-c3ccc(C)cc3)nc3cc(OC)c(OC)cc23)c1.Cl | 256 °C
COc1cc2nc(-c3ccc(Cl)cc3)nc(NCCCn3ccnc3)c2cc1OC [Example 21, 2-(4-Chlorophenyl)-4-(3-(1-imidazolyl)propylamino)-6,7-dimethoxyquinazoline] | 242 °C
COc1cc2nc(-c3ccc(Cl)cc3)nc(NC3CC(C)(C)NC(C)(C)C3)c2cc1OC [Example 26, 2-(4-Chlorophenyl)-4-((2,2,6,6-tetramethylpiperidin-4-yl)amino)-6,7-dimethoxyquinazoline] | 231 °C
COc1cc2nc(-c3ccc(Cl)cc3)nc(NCCCN3CCCC3=O)c2cc1OC [Example 27, 2-(4-Chlorophenyl)-4-(3-(2-oxopyrrolidino)propylamino)-6,7-dimethoxyquinazoline] | 210 °C
COc1cc2nc(-c3ccc(Cl)cc3)nc(N3CCN(CC(=O)N4CCOCC4)CC3)c2cc1OC [Example 30, 2-(4-Chlorophenyl)-4-(4-(morpholinocarbonylmethyl)piperazino)-6,7-dimethoxyquinazoline] | 198 °C
COc1cc2nc(-c3ccc(C)cc3)nc(NCCN(C(C)C)C(C)C)c2cc1OC [Example 40, 2-(4-Methylphenyl)-4-(2-diisopropylaminoethylamino)-6,7-dimethoxyquinazoline] | 81 °C
COc1cc2nc(-c3ccc(C(F)(F)F)cc3)nc(N3CCN(CCO)CC3)c2cc1OC [Example 43, 2-(4-Trifluoromethylphenyl)-4-(4-(2-hydroxyethyl)piperazino)-6,7-dimethoxyquinazoline] | 176 °C
COc1cc2nc(-c3ccc(C(F)(F)F)cc3)nc(N3CCN(C)CC3)c2cc1OC [Example 45, 2-(4-Trifluoromethylphenyl)-4-(4-methylpiperazino)-6,7-dimethoxyquinazoline] | 139 °C
COc1cc2nc(-c3ccc(C(F)(F)F)cc3)nc(N3CCOCC3)c2cc1OC [Example 50, 2-(4-Trifluoromethylphenyl)-4-morpholino-6,7-dimethoxyquinazoline] | 207 °C
COc1cc2c(NCc3cccnc3)nc(-c3ccc(Cl)cc3)nc2c(OC)c1OC [Example 54, 2-(4-Chlorophenyl)-4-((3-pyridylmethyl)amino)-6,7,8-trimethoxyquinazoline] | 262 °C
COc1cc2c(N3CCOCC3)nc(-c3ccc(Cl)cc3)nc2c(OC)c1OC [Example 55, 2-(4-Chlorophenyl)-4-morpholino-6,7,8-trimethoxyquinazoline] | 153 °C
COc1cc2c(NCCO)nc(-c3ccc(Cl)cc3)nc2c(OC)c1OC [Example 57, 2-(4-Chlorophenyl)-4-(2-hydroxyethylamino)-6,7,8-trimethoxyquinazoline] | 202 °C
COCCNc1nc(-c2ccc(Cl)cc2)nc2c(OC)c(OC)c(OC)cc12 [Example 58, 2-(4-Chlorophenyl)-4-(2-methoxyethylamino)-6,7,8-trimethoxyquinazoline] | 165 °C
COc1cc2c(NCCN(C(C)C)C(C)C)nc(-c3cc(C(F)(F)F)cc(C(F)(F)F)c3)nc2c(OC)c1OC [Example 63, 2-(3,5-Bistrifluoromethylphenyl)-4-(2-diisopropylaminoethylamino)-6,7,8-trimethoxyquinazoline] | 128 °C
